US9382228B2 (priority 2013, dated 2016)
pIC50: −log10 of the molar value.

Legend:
[1] = system: osteoclast precursors; test: cells; format: cell-based; conditions: read-out: Osteoclast assay
[2] = system: M-NFS-60 cells; test: cells; conditions: 67 h, read-out: M-NFS-60 cell proliferation
Method: M-NFS-6 Cell Proliferation Assay
A serial dilution of test compound was dispensed into a 384-well black clear bottom plate (Corning, Corning, N.Y.). Two thousand five hundred cells were added per well in 50 μL complete growth medium. […] IC50 values were calculated from a series of percent inhibition values determined at a range of inhibitor concentrations using software routines as implemented in the GraphPad Prism software package.

[3] = system: phospho-FMS in THP-1 cells; test: cells; conditions: Homo sapiens, THP-1, read-out: pFMS inhibition in THP-1 cells
Method: In a separate 96 well black clear bottom plate, one hundred and fifty thousand THP-1 cells were added per well in 100 μL in assay medium. Fifty microliters of diluted compound was then added to the cells. […] Lysates were prepared and used to perform the phospho-FMS ELISA as described by the manufacturer (catalog #DYC3268, R & D Systems, Minneapolis, Minn.). GraphPad Prism was used to calculate IC50 values obtained from data generated from the ELISA assay.

[4] = molecular target: T1, unphosphorylated c-FMS kinase (uFMS, Seq. ID no. 1) (Homo sapiens, UniProt P07333); test: biochemical; conditions: uFMS, enzymatic assay, ATP 500 μM
T1 sequence (P07333 538-972): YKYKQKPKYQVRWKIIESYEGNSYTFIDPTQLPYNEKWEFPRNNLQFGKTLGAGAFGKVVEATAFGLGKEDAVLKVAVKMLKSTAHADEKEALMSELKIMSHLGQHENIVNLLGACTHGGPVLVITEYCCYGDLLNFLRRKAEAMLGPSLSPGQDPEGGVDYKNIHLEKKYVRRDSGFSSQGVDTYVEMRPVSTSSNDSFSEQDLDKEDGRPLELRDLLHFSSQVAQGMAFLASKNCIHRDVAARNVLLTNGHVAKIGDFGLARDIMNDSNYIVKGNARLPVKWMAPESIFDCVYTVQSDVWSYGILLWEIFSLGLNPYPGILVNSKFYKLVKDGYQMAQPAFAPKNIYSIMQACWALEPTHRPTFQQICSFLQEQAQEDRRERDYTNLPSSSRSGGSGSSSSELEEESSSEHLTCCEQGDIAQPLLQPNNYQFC

[5] = molecular target: unphosphorylated c-KIT kinase (uKIT, Seq. ID no. 2) (Homo sapiens, UniProt P10721); test: biochemical; conditions: uKIT, enzymatic assay, ATP 2000 μM
Method: uKit kinase (Seq. ID No. 2) Assay
In this assay, the oxidation of NADH (thus the decrease at A340 nm) was continuously monitored spectrophometrically. […] The inhibition reaction was started by mixing serial diluted test compound with the above reaction mixture. The absorption at 340 nm was monitored continuously for 4 hours at 30° C. on Synergy 2 plate reader (BioTech).

[6] = molecular target: unphosphorylated PDGFRβ kinase (uPDGFRβ, Seq. ID No. 3) (Homo sapiens, UniProt P09619); test: biochemical; conditions: uPDGFRb, enzymatic assay, ATP 500 μM
Sequence of unphosphorylated PDGFRβ kinase (uPDGFRβ, Seq. ID No. 3) (P09619 557-1106): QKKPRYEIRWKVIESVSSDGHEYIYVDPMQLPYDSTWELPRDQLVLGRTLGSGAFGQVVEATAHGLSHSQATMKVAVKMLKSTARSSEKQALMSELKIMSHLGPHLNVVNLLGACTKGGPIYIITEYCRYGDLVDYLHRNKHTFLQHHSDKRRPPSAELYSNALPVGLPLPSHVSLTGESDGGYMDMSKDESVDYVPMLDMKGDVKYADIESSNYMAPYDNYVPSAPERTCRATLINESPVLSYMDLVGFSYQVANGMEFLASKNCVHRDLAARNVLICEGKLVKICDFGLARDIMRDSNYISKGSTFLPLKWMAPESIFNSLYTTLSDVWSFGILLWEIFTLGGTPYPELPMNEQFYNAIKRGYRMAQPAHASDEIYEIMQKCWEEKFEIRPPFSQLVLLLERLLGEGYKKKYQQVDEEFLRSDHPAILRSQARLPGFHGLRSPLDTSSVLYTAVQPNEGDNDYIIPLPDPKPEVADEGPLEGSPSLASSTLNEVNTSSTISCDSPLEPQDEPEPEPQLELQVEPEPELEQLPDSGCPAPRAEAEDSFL

Sequence of unphosphorylated c-KIT kinase (uKIT, Seq. ID no. 2) (P10721 with tags, fused parts or gaps): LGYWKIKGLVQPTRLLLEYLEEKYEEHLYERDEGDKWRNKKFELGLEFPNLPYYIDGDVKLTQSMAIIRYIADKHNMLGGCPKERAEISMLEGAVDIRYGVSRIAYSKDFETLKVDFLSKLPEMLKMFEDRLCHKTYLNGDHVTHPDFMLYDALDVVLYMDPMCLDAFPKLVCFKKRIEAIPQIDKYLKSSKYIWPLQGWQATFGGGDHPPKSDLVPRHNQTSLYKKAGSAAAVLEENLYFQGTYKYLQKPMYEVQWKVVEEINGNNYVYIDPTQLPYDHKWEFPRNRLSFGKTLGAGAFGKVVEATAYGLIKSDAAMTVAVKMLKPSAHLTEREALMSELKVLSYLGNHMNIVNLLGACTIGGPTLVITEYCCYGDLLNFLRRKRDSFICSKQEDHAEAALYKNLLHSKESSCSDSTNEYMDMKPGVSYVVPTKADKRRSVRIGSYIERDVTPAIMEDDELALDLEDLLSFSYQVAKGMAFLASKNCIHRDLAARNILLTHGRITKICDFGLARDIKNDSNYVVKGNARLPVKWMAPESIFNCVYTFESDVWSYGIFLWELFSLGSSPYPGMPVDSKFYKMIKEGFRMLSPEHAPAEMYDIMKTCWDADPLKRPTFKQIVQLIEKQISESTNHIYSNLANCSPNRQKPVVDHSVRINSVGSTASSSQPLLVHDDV

| SMILES | pIC50 [1] | pIC50 [2] | pIC50 [3] | pIC50 [4] | pIC50 [5] | pIC50 [6] |
| --- | --- | --- | --- | --- | --- | --- |
| COC(C)(C)C(=O)NC(=O)Nc1cc(C)c(Oc2ccnc(-c3cnn(C)c3)c2)c(C)n1 [Example 140, N-((4,6-dimethyl-5-((2-(1-methyl-1H-pyrazol-4-yl)pyridin-4-yl)oxy)pyridin-2-yl)carbamoyl)-2-methoxy-2-methylpropanamide] | 7.00 to 8.00 | > 8.00 | > 8.00 | > 8.00 | 7.00 to 8.00 | 6.00 to 7.00 |
| COC1(C(=O)NC(=O)Nc2ccc(Oc3ccnc(-n4cnc(C)c4)c3)cn2)CCCC1 [Example 154, 1-methoxy-N-((5-((2-(4-methyl-1H-imidazol-1-yl)pyridin-4-yl)oxy)pyridin-2-yl)carbamoyl)cyclopentanecarboxamide] | 7.00 to 8.00 | 7.00 to 8.00 | 7.00 to 8.00 | > 8.00 | < 6.00 | 6.00 to 7.00 |
| Cc1ncc(-c2cc(Oc3ccc(NC(=O)NC(=O)C4(C)CCOCC4)nc3)ccn2)s1 [Example 158, 4-methyl-N-((5-((2-(2-methylthiazol-5-yl)pyridin-4-yl)oxy)pyridin-2-yl)carbamoyl)tetrahydro-2H-pyran-4-carboxamide] | 7.00 to 8.00 | 7.00 to 8.00 | 7.00 to 8.00 | 7.00 to 8.00 | < 6.00 | 6.00 to 7.00 |
| COC(C)(C)C(=O)NC(=O)Nc1ccc(Oc2ccnc(-c3cnc(C)o3)c2)cn1 [Example 159, 2-methoxy-2-methyl-N-((5-((2-(2-methyloxazol-5-yl)pyridin-4-yl)oxy)pyridin-2-yl)carbamoyl)propanamide] | 7.00 to 8.00 | 7.00 to 8.00 | > 8.00 | 7.00 to 8.00 | < 6.00 | < 6.00 |
| COC(C)(C)C(=O)NC(=O)Nc1ccc(Oc2ccnc(-c3ccnc(C)c3)c2)cn1 [Example 160, 2-methoxy-2-methyl-N-((5-((2′-methyl-[2,4′-bipyridin]-4-yl)oxy)pyridin-2-yl)carbamoyl)propanamide] | 7.00 to 8.00 | > 8.00 | > 8.00 | > 8.00 | < 6.00 | < 6.00 |
| CCOC(C)(C)C(=O)NC(=O)Nc1ccc(Oc2ccnc(-c3ccnc(C)c3)c2)cn1 [Example 161, 2-ethoxy-2-methyl-N-((5-((2′-methyl-[2,4′-bipyridin]-4-yl)oxy)pyridin-2-yl)carbamoyl)propanamide] | 7.00 to 8.00 | 7.00 to 8.00 | 7.00 to 8.00 | > 8.00 | < 6.00 | < 6.00 |
| COC(C)(C)C(=O)NC(=O)Nc1cc(C)c(Oc2ccnc(-n3cnc(C)c3)c2)cn1 [Example 164, 2-methoxy-2-methyl-N-((4-methyl-5-((2-(4-methyl-1H-imidazol-1-yl)pyridin-4-yl)oxy)pyridin-2-yl)carbamoyl)propanamide] | 7.00 to 8.00 | > 8.00 | > 8.00 | > 8.00 | < 6.00 | < 6.00 |
| Cc1cc(NC(=O)NC(=O)C2(C)CCOCC2)nc(C)c1Oc1ccnc(-c2cnn(C)c2)c1 [Example 165, N-((4,6-dimethyl-5-((2-(1-methyl-1H-pyrazol-4-yl)pyridin-4-yl)oxy)pyridin-2-yl)carbamoyl)-4-methyltetrahydro-2H-pyran-4-carboxamide] | 7.00 to 8.00 | 7.00 to 8.00 | 7.00 to 8.00 | > 8.00 | 6.00 to 7.00 | 7.00 to 8.00 |
| CCc1nc(NC(=O)NC(=O)C2(C)CCOCC2)ccc1Oc1ccnc(-c2cnn(C)c2)c1 [Example 167, N-((6-ethyl-5-((2-(1-methyl-1H-pyrazol-4-yl)pyridin-4-yl)oxy)pyridin-2-yl)carbamoyl)-4-methyltetrahydro-2H-pyran-4-carboxamide] | 6.00 to 7.00 | 6.00 to 7.00 | 7.00 to 8.00 | 7.00 to 8.00 | < 6.00 | < 6.00 |
| CC(C)c1nc(-c2cc(Oc3ccc(NC(=O)NC(=O)C(C)(C)C)nc3)ccn2)c[nH]1 [Example 169, N-((5-((2-(2-isopropyl-1H-imidazol-4-yl)pyridin-4-yl)oxy)pyridin-2-yl)carbamoyl)pivalamide] | 7.00 to 8.00 | 7.00 to 8.00 | > 8.00 | > 8.00 | < 6.00 | < 6.00 |
| CCn1cc(-c2cc(Oc3ccc(NC(=O)NC(=O)C(C)(C)OC)nc3)ccn2)cn1 [Example 170, N-((5-((2-(1-ethyl-1H-pyrazol-4-yl)pyridin-4-yl)oxy)pyridin-2-yl)carbamoyl)-2-methoxy-2-methylpropanamide] | > 8.00 | > 8.00 | 7.00 to 8.00 | > 8.00 | 6.00 to 7.00 | < 6.00 |
| Cc1nc(NC(=O)NC(=O)C(C)(C)C)ccc1Oc1ccnc(-c2c[nH]nn2)c1 [Example 171, N-((5-((2-(1H-1,2,3-triazol-4-yl)pyridin-4-yl)oxy)-6-methylpyridin-2-yl)carbamoyl)pivalamide] | 7.00 to 8.00 | 7.00 to 8.00 | 7.00 to 8.00 | > 8.00 | < 6.00 | < 6.00 |
| C=CCn1cc(-c2cc(Oc3ccc(NC(=O)NC(=O)C(C)(C)OC)nc3)ccn2)cn1 [Example 172, N-((5-((2-(1-allyl-1H-pyrazol-4-yl)pyridin-4-yl)oxy)pyridin-2-yl)carbamoyl)-2-methoxy-2-methylpropanamide] | > 8.00 | 7.00 to 8.00 | > 8.00 | > 8.00 | 6.00 to 7.00 | < 6.00 |
| COC(C)(C)C(=O)NC(=O)Nc1ccc(Oc2ccnc(-c3cnc(C(C)C)[nH]3)c2)cn1 [Example 173, N-((5-((2-(2-isopropyl-1H-imidazol-5-yl)pyridin-4-yl)oxy)pyridin-2-yl)carbamoyl)-2-methoxy-2-methylpropanamide] | 7.00 to 8.00 | 7.00 to 8.00 | > 8.00 | 7.00 to 8.00 | < 6.00 | < 6.00 |
| Cn1cc(-c2cc(Oc3cnc(NC(=O)NC(=O)C(C)(C)C)nc3)ccn2)cn1 [Example 174, N-((5-((2-(1-methyl-1H-pyrazol-4-yl)pyridin-4-yl)oxy)pyrimidin-2-yl)carbamoyl)pivalamide] | 7.00 to 8.00 | 7.00 to 8.00 | 7.00 to 8.00 | 7.00 to 8.00 | 6.00 to 7.00 | < 6.00 |
| Cn1cc(-c2cc(Oc3ccc(NC(=O)NC(=O)C4(C)CCOCC4)nc3)ccn2)cn1 [Example 175, 4-methyl-N-((5-((2-(1-methyl-1H-pyrazol-4-yl)pyridin-4-yl)oxy)pyridin-2-yl)carbamoyl)tetrahydro-2H-pyran-4-carboxamide] | 7.00 to 8.00 | 7.00 to 8.00 | 7.00 to 8.00 | > 8.00 | 6.00 to 7.00 | 6.00 to 7.00 |
| Cn1cc(-c2cc(Oc3cnc(NC(=O)NC(=O)C(C)(C)C)cn3)ccn2)cn1 [Example 176, N-((5-((2-(1-methyl-1H-pyrazol-4-yl)pyridin-4-yl)oxy)pyrazin-2-yl)carbamoyl)pivalamide] | 7.00 to 8.00 | < 6.00 | 7.00 to 8.00 | 7.00 to 8.00 | < 6.00 | < 6.00 |
